For one assay, the target named is AKT1 (Homo sapiens (Human), UniProt P31749). Nature of the assay: AKT kinase activity assay (HTRF kinEASE TK), AKT1. Type of assay: biochemical. Conditions: 2 µM ATP, read-out: AKT1 enzyme activity IC50. In general terms: TR-FRET usually uses a lanthanide donor and a delayed reading to cut background.
A further assay deals with AKT3 (Homo sapiens (Human), UniProt Q9Y243). As to the kind of experiment: AKT kinase activity assay (HTRF kinEASE TK), AKT3. To be noted: 10 nM ATP, read-out: AKT3 enzyme activity IC50. Type of assay: biochemical. As to the method: The substrate and ATP were respectively diluted with the 1× kinase reaction buffer to a concentration 5 times the reaction concentration.
AKT3, sequence (Q9Y243 whole entry): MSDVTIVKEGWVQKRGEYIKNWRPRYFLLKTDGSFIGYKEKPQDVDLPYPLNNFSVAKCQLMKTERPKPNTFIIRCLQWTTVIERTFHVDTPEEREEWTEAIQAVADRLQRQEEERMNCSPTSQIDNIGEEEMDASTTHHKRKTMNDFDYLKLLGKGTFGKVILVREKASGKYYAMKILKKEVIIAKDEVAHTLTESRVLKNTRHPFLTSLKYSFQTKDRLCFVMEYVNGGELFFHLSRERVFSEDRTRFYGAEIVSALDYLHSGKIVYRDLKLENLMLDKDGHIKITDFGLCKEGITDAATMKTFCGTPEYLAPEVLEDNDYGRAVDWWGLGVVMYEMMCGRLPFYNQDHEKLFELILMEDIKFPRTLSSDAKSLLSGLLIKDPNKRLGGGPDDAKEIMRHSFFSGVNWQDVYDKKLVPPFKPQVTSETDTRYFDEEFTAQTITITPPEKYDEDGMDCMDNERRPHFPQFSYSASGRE
A 5× enzyme working solution was prepared from the 1× kinase reaction buffer.
A 4× streptavidin-XL665 working solution was prepared from the assay buffer.
4× europium-labeled tyrosine kinase substrate antibody working solution The europium-labeled tyrosine kinase substrate antibody was 100-fold diluted with the assay reaction buffer to obtain a working solution.
After all the reagents were prepared according to the above method, except for the enzyme, the reagents were equilibrated to the room temperature and loaded.
b) 2 µL of previously prepared TK-biotin substrate solution (the concentration of the substrate for enzyme screening is shown in Table 1) was placed in each reaction well.
The plate was sealed with a sealing film, and the reaction solution was mixed until uniform and incubated at the room temperature for 10 min to allow the compound to fully react with and bind to the enzyme.
d) 2 µL of ATP solution was placed in each reaction well to initiate a kinase reaction (the concentration of ATP for enzyme screening and reaction time are shown in Table 1).
e) 5 min before the kinase reaction was completed, an assay solution was prepared.
f) After the kinase reaction was completed, 5 µL of diluted streptavidin-XL665 was placed in each reaction well and mixed with the reaction solution until uniform, and the diluted europium-labeled tyrosine kinase substrate antibody assay solution was immediately added.

Assay [1] concerns LnCap human prostate cancer. Nature of the assay: Subcutaneous transplantation model of LnCap human prostate cancer. The format is in vivo, NCG mice. To be noted: for T/C / TGI / TV on the day of the end of the experiment: 18 days; for TV on the day of the end of the experiment / TV on the day of grouping and administration: mean ± SEM; for TV on the day of grouping and administration: baseline. An excerpt: NCG mice, male, 8-10-week-old (when tumor cells were inoculated into the mice). […] LnCap cells in exponential growth phase were harvested and resuspended in PBS to a concentration suitable for subcutaneous tumor inoculation into mice. […] A formula for calculating a tumor volume: long diameter × short diameter^2 / 2. [table] […] Solvent: the solvent was a mixed solvent of PG, PEG400, and water, PG: PEG400: water=(20-40): (20-30): (30-50) (v: v: v). Any ratio within the range can be used. [table] All experimental results are shown as mean tumor volume ± SEM (standard error of mean). Whether there is a significant difference between the treatment group and the control group in terms of tumor volume was determined by the independent samples T test. All data were analyzed by using SPSS 18.0.

AKT1, sequence (P31749 whole entry): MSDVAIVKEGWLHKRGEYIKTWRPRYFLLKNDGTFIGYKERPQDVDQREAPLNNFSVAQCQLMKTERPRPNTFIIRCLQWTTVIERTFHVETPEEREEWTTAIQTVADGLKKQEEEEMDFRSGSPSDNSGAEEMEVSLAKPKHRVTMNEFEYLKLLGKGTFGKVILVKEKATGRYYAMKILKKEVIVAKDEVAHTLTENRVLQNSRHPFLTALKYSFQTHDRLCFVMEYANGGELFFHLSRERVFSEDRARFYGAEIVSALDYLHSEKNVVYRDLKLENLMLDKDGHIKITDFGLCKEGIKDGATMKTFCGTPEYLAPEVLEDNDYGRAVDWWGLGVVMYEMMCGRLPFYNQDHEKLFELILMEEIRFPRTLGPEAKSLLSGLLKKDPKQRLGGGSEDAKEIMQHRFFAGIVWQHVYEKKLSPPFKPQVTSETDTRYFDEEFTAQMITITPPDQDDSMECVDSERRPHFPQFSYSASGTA

As for `CC(C)NC[C@@H](C(=O)N1CCN(c2ncnc3c2[C@H](C)OC(=O)N3)[C@H]2C[C@H]21)c1ccc(Cl)cc1` (single isomer, unassigned) [Isomer 2 of Example 3], the IC50 was found to be 613 nM on AKT1 and 89 nM at AKT3.
In the case of `CC(C)NC[C@@H](C(=O)N1CCN(c2ncnc3c2[C@H](C)CC(=O)N3)[C@H]2C[C@H]21)c1ccc(Cl)cc1` [Isomer 2 of Example 1, (R)-4-((1S,6R)-5-((S)-2-(4-chlorophenyl)-3-(isopropylamino)propionyl)-2,5-diazabicyclo[4.1.0]heptan-2-yl)-5-methyl-5,8-dihydropyrido[2,3-d]pyrimidin-7(6H)-one], in assay [1] (12.5 mg/kg QD po), the T/C was 41.57%; the TGI is 58.43%; the “TV on the day of the end of the experiment” value (“TV … of the experiment” below) is recorded as 401.07±80.17 mm^3; the “TV on the day of grouping and administration” value was 177.76±6.67 mm^3. Also, in assay [1] (25 mg/kg QD po), the T/C worked out at 15.90%; the TGI came to 84.10%; the “TV … of the experiment” value is listed as 153.42±23.11 mm^3; the “TV on the day of grouping and administration” value was 177.80±6.71 mm^3. Further, in assay [1] (50 mg/kg QD po), the T/C is on record as 4.52%; the TGI amounted to 95.48%; the “TV … of the experiment” value stood at 43.64±16.62 mm^3; the “TV on the day of grouping and administration” value was found to be 177.78±6.64 mm^3.
On to `C[C@@H]1CC(=O)Nc2ncnc(N3CCN(C(=O)[C@H](CNC4CC4)c4ccc(Cl)cc4)[C@@H]4C[C@@H]43)c21` [Isomer 2 of Example 2, (R)-4-((1S,6R)-5-((S)-2-(4-chlorophenyl)-3(cyclopropylamino)propionyl)-2,5-diazabicyclo[4.1.0]heptan-2-yl)-5-methyl-5,8-dihydropyrido[2,3-d]pyrimidin-7(6H)-one], for which, in assay [1] (50 mg/kg QD po), the T/C is 19.44%, the TGI is 80.56% and the “TV … of the experiment” value worked out at 187.49±22.88 mm^3.
For the compound `C[C@@H]1CC(=O)Nc2ncnc(N3CCN(C(=O)[C@H](CNC4CC4)c4ccc(Cl)cc4)[C@H]4C[C@H]43)c21` (single isomer, unassigned) [Isomer 1 of Example 1], at AKT3, the IC50 amounted to 13 nM.
`CC(C)NC[C@@H](C(=O)N1CCN(c2ncnc3c2[C@H](C)OC(=O)N3)[C@H]2C[C@H]21)c1ccc(Cl)cc1` (single isomer, unassigned; isomer 4) [Isomer 4 of Example 3]: the IC50 on AKT1 came to 0.6 nM. For the same compound, on AKT3, the IC50 worked out at 0.12 nM. In assay [1] (50 mg/kg QD po), the T/C turned out to be 10.29%; the TGI worked out at 89.71%; the “TV … of the experiment” value is 99.30±40.55 mm^3; the “TV on the day of grouping and administration” value turned out to be 177.90±10.06 mm^3. For the same compound, the “tumor inhibiting effect in the in vivo experiment” value in assay [1] (result in words) is reported as “obvious tumor inhibiting effect”.

A word on the IC50: it is the concentration needed to halve the response being measured. As usually defined, the T/C is the ratio of treated to control.

These data come from patent US20230321108A1, “UNIT DOSAGE COMPOSITION OF AKT INHIBITOR” (NANJING CHIA TAI TIANQING PHARMACEUTICAL CO., LTD., priority 2020, published 2023).
